# Earlier results as cited in US9278101B2, “Ophthalmologic irrigation solutions and method” (Omeros Corporation, priority 2002, dated 2016).
# Tests used:
# [1] = tested on: non-adrenoceptor imidazoline binding sites
# [2] = tested on: alpha-1 receptor subtypes; details: three alpha-1 receptor subtypes
# [3] = in vivo
Molecule,affinity for non-adrenoceptor imidazoline binding sites [1],other results
"Brc1c(NC2=NCCN2)ccc2nccnc12 [UK14304, 5-bromo-N-(4,5-dihydro-1H-imidazol-2-yl)-6-quinoxalinamine]",high affinity (nanomolar),–
Clc1cccc(Cl)c1N=C1NCCN1 [clonidine],high affinity (nanomolar),–
c1ccc2c(c1)OCC(C1=NCCN1)O2 (stereo not drawn) [idazoxan],high affinity (nanomolar),–
Cc1cc(C(C)(C)C)c(O)c(C)c1CC1=NCCN1 [oxymetazoline],high affinity (nanomolar),–
COc1cc2nc(N3CCN(C(=O)c4ccco4)CC3)nc(N)c2cc1OC [prazosin],–,affinity for alpha-1 receptor subtypes [2]: high affinity (subnanomolar)
tropicamide,–,half-life [3]: 4 to 6 h
